From ChEMBL document CHEMBL1128849, “Synthesis and antibacterial activity of men 10700, a new penem antibiotic” (1995)
In brackets after ≈: the same amount, converted by molar mass.

Experiments:
Aeromonas sp. = assay: In vitro antibacterial activity against Aeromonas species.; format: functional
[1] = test system: Acinetobacter calcoaceticus subsp. anitratus; assay: In vitro antibacterial activity against Acinetobacter anitratus; format: functional
Bacteroides fragilis = assay: In vitro antibacterial activity against Bacteroides fragilis; format: functional
Moraxella catarrhalis = assay: In vitro antibacterial activity against Branhamella catarrhalis; format: functional
Clostridium perfringens = assay: In vitro antibacterial activity against Clostridium perfringens; format: functional
Citrobacter freundii = assay: In vitro antibacterial activity against Citrobacter freundii; format: functional
Enterococcus faecalis [2] = assay: In vitro antibacterial activity against Enterococcus faecalis; format: functional
Enterococcus faecium = assay: In vitro antibacterial activity against Enterococcus faecium; format: functional
Enterococcus faecalis [3] = assay: In vitro antibacterial activity against Enterococcus faecalis ATCC 29212; format: functional
Escherichia coli [4] = assay: In vitro antibacterial activity against Escherichia coli; format: functional
Escherichia coli [5] = assay: In vitro antibacterial activity against Escherichia. coli ATCC 25922; format: functional
Escherichia coli [6] = assay: In vitro antibacterial activity against Escherichia. coli DC2; format: functional
Escherichia coli [7] = assay: In vitro antibacterial activity against Escherichia. coli L; format: functional
Escherichia coli [8] = assay: In vitro antibacterial activity against Escherichia. coli SHV; format: functional
Escherichia coli [9] = assay: In vitro antibacterial activity against Escherichia. coli TEM1; format: functional
Escherichia coli [10] = assay: In vitro antibacterial activity against Escherichia. coli TEM2; format: functional
Klebsiella aerogenes = assay: In vitro antibacterial activity against Enterobacter aerogenes; format: functional
Haemophilus influenzae = assay: In vitro antibacterial activity against Haemophilus influenzae; format: functional
Klebsiella pneumoniae = assay: In vitro antibacterial activity against Klebsiella pneumoniae; format: functional
Listeria monocytogenes = assay: In vitro antibacterial activity against Listeria monocytogenes; format: functional
Morganella morganii = assay: In vitro antibacterial activity against Morganella morganii; format: functional
Pseudomonas aeruginosa [11] = assay: In vitro antibacterial activity against Pseudomonas aeruginosa VR5; format: functional
Proteus vulgaris = assay: In vitro antibacterial activity against Proteus vulgaris; format: functional
Providencia stuartii = assay: In vitro antibacterial activity against Providencia stuartii; format: functional
Providencia rettgeri = assay: In vitro antibacterial activity against Providencia rettgerii; format: functional
Proteus mirabilis = assay: In vitro antibacterial activity against Proteus mirabilis; format: functional
Pseudomonas aeruginosa [12] = assay: In vitro antibacterial activity against Pseudomonas aeruginosa; format: functional
Pseudomonas aeruginosa [13] = assay: In vitro antibacterial activity against Pseudomonas aeruginosa G242; format: functional
[14] = test system: Staphylococcus epidermidis; assay: In vitro antibacterial activity against Staphylococcus epidermidis; format: functional
Staphylococcus aureus [15] = assay: In vitro antibacterial activity against Staphylococcus aureus MR; format: functional
Staphylococcus aureus [16] = assay: In vitro antibacterial activity against Staphylococcus aureus MS; format: functional
Streptococcus agalactiae = assay: In vitro antibacterial activity against Streptococcus agalactiae B; format: functional
Staphylococcus aureus [17] = assay: In vitro antibacterial activity against Staphylococcus aureus ATCC 25923; format: functional
Staphylococcus aureus [18] = assay: In vitro antibacterial activity against Staphylococcus aureus ATCC 29213; format: functional
Staphylococcus aureus [19] = assay: In vitro antibacterial activity against Staphylococcus aureus MR09; format: functional
Staphylococcus aureus [20] = assay: In vitro antibacterial activity against Staphylococcus aureus MR13; format: functional
Streptococcus pneumoniae = assay: In vitro antibacterial activity against Streptococcus pneumoniae; format: functional
Yersinia sp. = assay: In vitro antibacterial activity against Yersinia species; format: functional, yersinia spp; conditions: Yersinia sp. (in: enterobacteria)
[21] = test system: Stenotrophomonas maltophilia; assay: In vitro antibacterial activity against Xanthomonas maltophilia; format: functional
Streptococcus pyogenes = assay: In vitro antibacterial activity against Streptococcus pyogenes A; format: functional
Pseudomonas aeruginosa [22] = assay: microbe, parasite or virus in culture; conditions: ATCC 27853
Pseudomonas aeruginosa [23] = assay: In vitro antibacterial activity against Pseudomonas aeruginosa ATCC 27853; format: functional

Compound: C[C@@H](O)[C@H]1C(=O)N2C(C(=O)O)=C(SCCNC=N)C[C@H]12 [IMIPENEM ANHYDROUS]
- MIC90 (Aeromonas sp.): 0.06 µg/mL (≈ 0.2 µM)
- MIC90 [1]: 0.5 µg/mL (≈ 1.67 µM)
- MIC90 (Bacteroides fragilis): 0.25 µg/mL (≈ 0.835 µM)
- MIC90 (Moraxella catarrhalis): 0.03 µg/mL (≈ 0.1 µM)
- MIC90 (Clostridium perfringens): 0.03 µg/mL (≈ 0.1 µM)
- MIC90 (Citrobacter freundii): 0.5 µg/mL (≈ 1.67 µM)
- MIC90 (Enterococcus faecalis [2]): 2 µg/mL (≈ 6.68 µM)
- MIC90 (Enterococcus faecium): > 64 µg/mL
- MIC (Enterococcus faecalis [3]): 0.5 µg/mL (≈ 1.67 µM)
- MIC90 (Escherichia coli [4]): 0.12 µg/mL (≈ 0.401 µM)
- MIC (Escherichia coli [5]): 0.12 µg/mL (≈ 0.401 µM)
- MIC (Escherichia coli [6]): 0.5 µg/mL (≈ 1.67 µM)
- MIC (Escherichia coli [7]): 0.12 µg/mL (≈ 0.401 µM)
- MIC (Escherichia coli [8]): 0.25 µg/mL (≈ 0.835 µM)
- MIC (Escherichia coli [9]): 0.25 µg/mL (≈ 0.835 µM)
- MIC (Escherichia coli [10]): 0.25 µg/mL (≈ 0.835 µM)
- MIC90 (Klebsiella aerogenes): 4 µg/mL (≈ 13.4 µM)
- MIC90 (Haemophilus influenzae): 1 µg/mL (≈ 3.34 µM)
- MIC90 (Klebsiella pneumoniae): 0.25 µg/mL (≈ 0.835 µM)
- MIC90 (Listeria monocytogenes): 0.03 µg/mL (≈ 0.1 µM)
- MIC90 (Morganella morganii): 2 µg/mL (≈ 6.68 µM)
- MIC (Pseudomonas aeruginosa [11]): 0.25 µg/mL (≈ 0.835 µM)
- MIC90 (Proteus vulgaris): 2 µg/mL (≈ 6.68 µM)
- MIC90 (Providencia stuartii): 2 µg/mL (≈ 6.68 µM)
- MIC90 (Providencia rettgeri): 1 µg/mL (≈ 3.34 µM)
- MIC90 (Proteus mirabilis): 2 µg/mL (≈ 6.68 µM)
- MIC90 (Pseudomonas aeruginosa [12]): 8 µg/mL (≈ 26.7 µM)
- MIC (Pseudomonas aeruginosa [13]): 0.25 µg/mL (≈ 0.835 µM)
- MIC90 [14]: 0.25 µg/mL (≈ 0.835 µM)
- MIC90 (Staphylococcus aureus [15]): > 32 µg/mL
- MIC90 (Staphylococcus aureus [16]): 0.015 µg/mL (≈ 0.0501 µM)
- MIC90 (Streptococcus agalactiae): 0.015 µg/mL (≈ 0.0501 µM)
- MIC (Staphylococcus aureus [17]): < 0.03 µg/mL
- MIC (Staphylococcus aureus [18]): < 0.03 µg/mL
- MIC (Staphylococcus aureus [19]): 0.25 µg/mL (≈ 0.835 µM)
- MIC (Staphylococcus aureus [20]): 0.12 µg/mL (≈ 0.401 µM)
- MIC90 (Streptococcus pneumoniae): 0.06 µg/mL (≈ 0.2 µM)
- MIC90 (Yersinia sp.): 0.25 µg/mL (≈ 0.835 µM)
- MIC90 [21]: > 64 µg/mL
- MIC90 (Streptococcus pyogenes): 0.06 µg/mL (≈ 0.2 µM)
- MIC (Pseudomonas aeruginosa [22]): 1 µg/mL (≈ 3.34 µM)

Compound: C[C@@H](O)[C@H]1C(=O)N2C(C(=O)O)=C(COC(N)=O)S[C@H]12 [RITIPENEM]
- MIC (Enterococcus faecalis [3]): 2 µg/mL (≈ 6.94 µM)
- MIC (Escherichia coli [5]): 0.5 µg/mL (≈ 1.73 µM)
- MIC (Escherichia coli [6]): 1 µg/mL (≈ 3.47 µM)
- MIC (Escherichia coli [7]): 1 µg/mL (≈ 3.47 µM)
- MIC (Escherichia coli [8]): 1 µg/mL (≈ 3.47 µM)
- MIC (Escherichia coli [9]): 1 µg/mL (≈ 3.47 µM)
- MIC (Escherichia coli [10]): 1 µg/mL (≈ 3.47 µM)
- MIC (Pseudomonas aeruginosa [11]): 0.5 µg/mL (≈ 1.73 µM)
- MIC (Pseudomonas aeruginosa [23]): > 32 µg/mL
- MIC (Pseudomonas aeruginosa [13]): 1 µg/mL (≈ 3.47 µM)
- MIC (Staphylococcus aureus [17]): 0.06 µg/mL (≈ 0.208 µM)
- MIC (Staphylococcus aureus [18]): 0.12 µg/mL (≈ 0.416 µM)
- MIC (Staphylococcus aureus [19]): 2 µg/mL (≈ 6.94 µM)
- MIC (Staphylococcus aureus [20]): 0.12 µg/mL (≈ 0.416 µM)
